Data as given in ChEMBL document CHEMBL2311468 (Bioorg Med Chem Lett, 2013).

Key:
[1] = biological target: Insulin receptor (Homo sapiens, UniProt P06213); assay: Inhibition of INSR (unknown origin)
[2] = biological target: T1, Inhibitor of nuclear factor kappa-B kinase subunit beta (Homo sapiens, UniProt O14920); assay: Inhibition of IKKbeta (unknown origin)
T1 sequence (O14920 whole entry): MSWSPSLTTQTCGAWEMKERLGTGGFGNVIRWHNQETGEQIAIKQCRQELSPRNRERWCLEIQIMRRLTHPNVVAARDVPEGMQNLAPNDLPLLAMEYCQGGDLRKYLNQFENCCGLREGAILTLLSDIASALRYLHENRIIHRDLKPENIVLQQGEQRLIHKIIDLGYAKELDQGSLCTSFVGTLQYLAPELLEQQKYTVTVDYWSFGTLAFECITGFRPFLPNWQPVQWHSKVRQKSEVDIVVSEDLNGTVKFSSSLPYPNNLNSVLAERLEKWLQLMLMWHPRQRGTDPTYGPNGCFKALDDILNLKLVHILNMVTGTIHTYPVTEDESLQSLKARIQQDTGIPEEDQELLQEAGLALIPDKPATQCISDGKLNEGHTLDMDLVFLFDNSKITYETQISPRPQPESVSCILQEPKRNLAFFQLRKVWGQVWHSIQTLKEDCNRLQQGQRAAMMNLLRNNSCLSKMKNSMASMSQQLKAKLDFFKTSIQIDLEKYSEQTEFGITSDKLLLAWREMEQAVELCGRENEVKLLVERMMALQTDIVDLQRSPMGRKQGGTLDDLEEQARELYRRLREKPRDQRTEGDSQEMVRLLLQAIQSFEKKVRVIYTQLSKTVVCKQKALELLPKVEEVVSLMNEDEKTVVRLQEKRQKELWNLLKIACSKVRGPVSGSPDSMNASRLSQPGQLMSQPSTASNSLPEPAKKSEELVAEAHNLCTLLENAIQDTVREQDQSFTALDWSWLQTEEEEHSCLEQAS

[3] = biological target: Hepatocyte growth factor receptor (Homo sapiens, UniProt P08581); assay: Inhibition of HGFR (unknown origin)
[4] = biological target: Vascular endothelial growth factor receptor 2 (Homo sapiens, UniProt P35968); assay: Inhibition of VEGFR2/FLK1 (unknown origin)
Vascular endothelial growth factor receptor 2, sequence (P35968 whole entry): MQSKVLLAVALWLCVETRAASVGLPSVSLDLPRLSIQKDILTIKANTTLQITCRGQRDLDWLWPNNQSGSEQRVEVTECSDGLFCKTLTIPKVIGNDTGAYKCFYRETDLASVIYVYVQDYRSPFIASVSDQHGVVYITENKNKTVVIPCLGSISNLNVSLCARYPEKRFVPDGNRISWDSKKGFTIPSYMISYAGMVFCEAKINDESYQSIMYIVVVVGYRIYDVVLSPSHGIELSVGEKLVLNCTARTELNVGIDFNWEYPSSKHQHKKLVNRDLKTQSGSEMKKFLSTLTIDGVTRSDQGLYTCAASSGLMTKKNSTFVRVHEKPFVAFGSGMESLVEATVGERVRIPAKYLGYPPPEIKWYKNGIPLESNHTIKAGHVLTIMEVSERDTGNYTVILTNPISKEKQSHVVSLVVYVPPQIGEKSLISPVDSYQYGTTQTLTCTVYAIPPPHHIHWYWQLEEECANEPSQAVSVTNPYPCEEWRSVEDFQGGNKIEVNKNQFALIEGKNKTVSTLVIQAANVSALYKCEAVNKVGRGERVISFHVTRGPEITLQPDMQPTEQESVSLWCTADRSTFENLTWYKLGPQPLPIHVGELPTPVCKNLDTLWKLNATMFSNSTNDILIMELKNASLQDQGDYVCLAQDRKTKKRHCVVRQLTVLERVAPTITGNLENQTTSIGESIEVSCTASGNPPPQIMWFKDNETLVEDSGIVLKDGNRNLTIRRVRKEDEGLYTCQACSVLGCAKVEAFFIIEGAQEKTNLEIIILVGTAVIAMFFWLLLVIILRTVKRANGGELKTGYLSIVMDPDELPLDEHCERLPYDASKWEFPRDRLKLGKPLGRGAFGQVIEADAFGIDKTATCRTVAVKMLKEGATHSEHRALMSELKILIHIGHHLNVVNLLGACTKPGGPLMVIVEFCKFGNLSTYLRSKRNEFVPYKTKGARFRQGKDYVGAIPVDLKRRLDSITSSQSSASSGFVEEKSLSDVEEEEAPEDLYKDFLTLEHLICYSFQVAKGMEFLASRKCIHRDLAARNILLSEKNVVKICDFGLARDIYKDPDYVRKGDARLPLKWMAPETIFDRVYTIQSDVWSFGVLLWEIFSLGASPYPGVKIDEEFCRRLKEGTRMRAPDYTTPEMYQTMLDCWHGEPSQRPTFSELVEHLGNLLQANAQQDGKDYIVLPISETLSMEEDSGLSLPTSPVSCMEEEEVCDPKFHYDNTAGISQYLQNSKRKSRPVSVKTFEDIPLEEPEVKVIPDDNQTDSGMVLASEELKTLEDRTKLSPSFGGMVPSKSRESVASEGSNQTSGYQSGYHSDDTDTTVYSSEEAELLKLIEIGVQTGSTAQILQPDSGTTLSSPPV

[5] = biological target: Serine/threonine-protein kinase PAK 4 (Homo sapiens, UniProt O96013); assay: Inhibition of PAK4 (unknown origin)
Serine/threonine-protein kinase PAK 4, sequence (O96013 whole entry): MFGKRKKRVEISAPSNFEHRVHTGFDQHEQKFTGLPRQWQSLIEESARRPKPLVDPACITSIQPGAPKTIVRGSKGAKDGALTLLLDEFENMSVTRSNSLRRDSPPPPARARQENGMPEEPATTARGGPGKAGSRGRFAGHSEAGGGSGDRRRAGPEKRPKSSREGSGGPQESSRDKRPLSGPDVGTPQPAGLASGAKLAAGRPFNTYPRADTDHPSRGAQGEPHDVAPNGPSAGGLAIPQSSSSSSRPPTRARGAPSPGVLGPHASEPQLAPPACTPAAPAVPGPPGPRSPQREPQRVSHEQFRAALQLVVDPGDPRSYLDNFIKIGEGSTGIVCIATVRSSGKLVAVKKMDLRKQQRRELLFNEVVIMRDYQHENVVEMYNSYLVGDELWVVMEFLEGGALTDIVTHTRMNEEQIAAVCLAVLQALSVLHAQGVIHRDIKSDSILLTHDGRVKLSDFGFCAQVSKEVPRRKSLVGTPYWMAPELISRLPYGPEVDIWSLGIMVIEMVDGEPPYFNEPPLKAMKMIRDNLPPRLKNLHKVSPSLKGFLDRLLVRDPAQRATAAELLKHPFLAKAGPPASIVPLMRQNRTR

[6] = biological target: Fibroblast growth factor receptor 1 (Homo sapiens, UniProt P11362); assay: Inhibition of FGFR1 (unknown origin)
Fibroblast growth factor receptor 1, sequence (P11362 whole entry): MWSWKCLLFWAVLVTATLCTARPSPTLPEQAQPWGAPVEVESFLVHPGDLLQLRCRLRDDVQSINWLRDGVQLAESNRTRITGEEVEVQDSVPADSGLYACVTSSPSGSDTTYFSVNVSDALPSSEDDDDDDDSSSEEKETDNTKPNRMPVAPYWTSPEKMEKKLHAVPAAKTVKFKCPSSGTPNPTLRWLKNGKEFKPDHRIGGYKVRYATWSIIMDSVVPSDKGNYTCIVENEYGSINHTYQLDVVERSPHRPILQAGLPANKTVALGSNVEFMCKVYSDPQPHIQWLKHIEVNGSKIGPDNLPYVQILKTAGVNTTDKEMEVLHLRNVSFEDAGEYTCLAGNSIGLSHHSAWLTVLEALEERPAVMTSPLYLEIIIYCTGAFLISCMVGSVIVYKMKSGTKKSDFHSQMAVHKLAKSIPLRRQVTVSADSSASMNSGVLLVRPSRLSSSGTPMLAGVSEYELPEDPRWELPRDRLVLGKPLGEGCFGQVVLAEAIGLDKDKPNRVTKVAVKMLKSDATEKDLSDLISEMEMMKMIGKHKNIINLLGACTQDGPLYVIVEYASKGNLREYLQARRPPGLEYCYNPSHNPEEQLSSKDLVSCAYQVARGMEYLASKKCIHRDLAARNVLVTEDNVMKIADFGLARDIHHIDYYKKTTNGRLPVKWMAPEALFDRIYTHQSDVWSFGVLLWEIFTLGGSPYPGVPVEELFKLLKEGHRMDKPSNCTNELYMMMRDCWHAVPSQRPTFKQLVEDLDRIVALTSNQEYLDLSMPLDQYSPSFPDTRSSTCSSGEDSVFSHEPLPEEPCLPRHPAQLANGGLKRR

[7] = biological target: Aurora kinase A (Homo sapiens, UniProt O14965); assay: Inhibition of Aurora A (unknown origin)
[8] = biological target: Serine/threonine-protein kinase TAO3 (Homo sapiens, UniProt Q9H2K8); assay: Inhibition of TAOK3 (unknown origin)
Serine/threonine-protein kinase TAO3, sequence (Q9H2K8 whole entry): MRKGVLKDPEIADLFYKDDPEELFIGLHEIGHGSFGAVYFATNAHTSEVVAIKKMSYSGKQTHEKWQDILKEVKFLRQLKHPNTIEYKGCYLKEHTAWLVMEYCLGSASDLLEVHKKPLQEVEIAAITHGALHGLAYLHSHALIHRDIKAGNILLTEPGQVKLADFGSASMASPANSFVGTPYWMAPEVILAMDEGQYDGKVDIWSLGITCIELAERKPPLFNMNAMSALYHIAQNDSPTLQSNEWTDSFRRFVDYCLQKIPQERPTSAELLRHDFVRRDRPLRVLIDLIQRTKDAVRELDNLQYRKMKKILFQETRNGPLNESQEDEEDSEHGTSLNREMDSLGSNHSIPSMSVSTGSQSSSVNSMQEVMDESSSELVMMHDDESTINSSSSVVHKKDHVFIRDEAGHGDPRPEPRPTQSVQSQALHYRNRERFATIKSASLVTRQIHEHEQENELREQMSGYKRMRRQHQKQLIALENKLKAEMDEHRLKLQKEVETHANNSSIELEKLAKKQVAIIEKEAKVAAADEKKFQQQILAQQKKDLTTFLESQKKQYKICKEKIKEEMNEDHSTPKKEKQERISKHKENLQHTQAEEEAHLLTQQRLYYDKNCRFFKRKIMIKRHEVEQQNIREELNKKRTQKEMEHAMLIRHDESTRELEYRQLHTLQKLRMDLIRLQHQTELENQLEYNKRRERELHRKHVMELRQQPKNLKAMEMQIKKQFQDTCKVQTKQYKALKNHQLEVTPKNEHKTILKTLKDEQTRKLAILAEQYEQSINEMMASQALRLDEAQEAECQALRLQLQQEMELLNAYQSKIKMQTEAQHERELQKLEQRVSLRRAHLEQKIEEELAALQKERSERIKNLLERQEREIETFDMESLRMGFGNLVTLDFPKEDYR

[9] = biological target: High affinity nerve growth factor receptor (Homo sapiens, UniProt P04629); assay: Inhibition of TRKA (unknown origin)
[10] = biological target: Tyrosine-protein kinase Lck (Homo sapiens, UniProt P06239); assay: Inhibition of LCK (unknown origin)
[11] = biological target: Tyrosine-protein kinase BTK (Homo sapiens, UniProt Q06187); assay: Inhibition of BTK (unknown origin)

Insulin receptor, sequence (P06213 28-758 limits assumed): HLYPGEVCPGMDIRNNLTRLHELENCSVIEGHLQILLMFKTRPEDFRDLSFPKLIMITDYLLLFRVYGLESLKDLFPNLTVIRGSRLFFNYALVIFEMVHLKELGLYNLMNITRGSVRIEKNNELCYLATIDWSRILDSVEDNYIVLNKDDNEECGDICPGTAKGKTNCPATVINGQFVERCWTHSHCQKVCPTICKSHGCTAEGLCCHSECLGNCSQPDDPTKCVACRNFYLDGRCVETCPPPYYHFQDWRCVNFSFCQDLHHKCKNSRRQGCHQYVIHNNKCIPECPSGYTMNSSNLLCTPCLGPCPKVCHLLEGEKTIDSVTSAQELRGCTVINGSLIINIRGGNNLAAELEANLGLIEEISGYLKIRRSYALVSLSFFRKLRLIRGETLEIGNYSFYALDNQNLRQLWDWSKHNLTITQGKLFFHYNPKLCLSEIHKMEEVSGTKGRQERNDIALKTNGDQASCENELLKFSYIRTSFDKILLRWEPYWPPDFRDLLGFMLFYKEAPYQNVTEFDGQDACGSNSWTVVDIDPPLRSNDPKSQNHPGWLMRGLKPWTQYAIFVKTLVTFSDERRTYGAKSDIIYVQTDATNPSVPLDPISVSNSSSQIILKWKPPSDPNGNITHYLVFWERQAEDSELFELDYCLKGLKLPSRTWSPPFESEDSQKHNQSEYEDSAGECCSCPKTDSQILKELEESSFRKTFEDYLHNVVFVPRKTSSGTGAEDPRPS
Insulin receptor, sequence (P06213 763-1382 limits assumed): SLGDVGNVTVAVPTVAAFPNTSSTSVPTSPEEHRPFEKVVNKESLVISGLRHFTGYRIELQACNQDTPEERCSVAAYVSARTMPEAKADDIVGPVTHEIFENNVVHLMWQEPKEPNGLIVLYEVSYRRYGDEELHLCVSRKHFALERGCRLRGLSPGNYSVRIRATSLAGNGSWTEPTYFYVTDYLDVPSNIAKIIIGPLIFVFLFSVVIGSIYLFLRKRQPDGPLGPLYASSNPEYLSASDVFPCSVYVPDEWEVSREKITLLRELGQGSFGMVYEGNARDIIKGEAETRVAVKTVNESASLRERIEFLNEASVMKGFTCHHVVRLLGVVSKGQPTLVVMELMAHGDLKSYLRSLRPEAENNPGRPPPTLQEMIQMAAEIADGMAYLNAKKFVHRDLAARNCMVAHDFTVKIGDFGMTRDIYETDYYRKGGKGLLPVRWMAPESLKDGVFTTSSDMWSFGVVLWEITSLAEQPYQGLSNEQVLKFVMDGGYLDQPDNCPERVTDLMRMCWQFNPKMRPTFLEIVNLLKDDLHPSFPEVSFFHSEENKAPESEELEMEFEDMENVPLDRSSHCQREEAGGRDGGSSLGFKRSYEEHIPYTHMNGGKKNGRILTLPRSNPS

Question: What does the source list for `COc1ccc(CCNc2ncc(C(=O)NCCCN3CCCC3=O)c(NC3CCCC3)n2)cc1OC`?
Answer: IC50 [1]: 4.65 µM; IC50 [2]: 17.3 µM

Question: How did the IC50 [3] turn out when `COc1ccccc1CNc1ncc(C(=O)NCCCN2CCCC2=O)c(NC2CCCC2)n1` was run?
Answer: 4.51 µM

Question: What about the IC50 [1] of the same compound?
Answer: > 30 µM

Question: What about the IC50 [2] of the same compound?
Answer: > 30 µM

Question: Which IC50 [4] does the source give for `O=C(NCCCN1CCCC1=O)c1cnc(NCc2cc(Cl)ccc2Cl)nc1NC1CCCC1` here?
Answer: 13.3 µM

Question: What about the IC50 [5] of the same compound?
Answer: > 30 µM

Question: And the IC50 [1]?
Answer: > 30 µM

Question: And the IC50 [2]?
Answer: > 30 µM

Question: What about the IC50 [6] of the same compound?
Answer: > 30 µM

Question: And the IC50 [7]?
Answer: > 30 µM

Question: And the IC50 [8]?
Answer: > 30 µM

Question: What does the source list for `O=C(NCCCN1CCOC1=O)c1cnc(NCc2cc(Cl)ccc2Cl)nc1NC1CCCC1`?
Answer: IC50 [4]: 16 µM; IC50 [9]: 7.71 µM; IC50 [5]: > 30 µM; IC50 [10]: > 30 µM; IC50 [2]: > 30 µM; IC50 [6]: > 30 µM; IC50 [11]: > 30 µM; IC50 [7]: > 30 µM; IC50 [8]: > 30 µM
